Data taken from publication PMC7898822, “RNA‐PROTACs: Degraders of RNA‐Binding Proteins” (Angewandte Chemie (International Ed. in English), 2020).
Oligonucleotides are written 5' to 3', each unit as a sugar letter and its base; * is a phosphorothioate linkage, no mark a phosphodiester; rarer units and linkages stand in square brackets, end groups in braces. Plain capitals give the bases only. {FAM} = fluorescein (FAM) label; r = 2'-OH (RNA)

How the values were obtained:
Lin28_ZKD [1] = biological target: T1, Lin28_ZKD (Homo sapiens, UniProt Q9H9Z2); test: Fluorescence polarization competition assay (displacement of let7FAM from Lin28_ZKD); type: binding; conditions: competition FP, conjugate vs parent
T1 construct: construct encoding amino acids 124–186 of human Lin28; His6; made in house; host or cells: Escherichia coli BL21 (DE3) Codon+ (RIL)
T1 sequence (Q9H9Z2 124-186): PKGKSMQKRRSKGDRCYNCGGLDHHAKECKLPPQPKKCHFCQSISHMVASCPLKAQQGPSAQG
Description: (§1) Fluorescence Polarization Assay. Fluorescence polarization titration assay was carried out by titrating Lin28_ZKD protein into FAM-labeled PreE-let-7 at a 10 nM final concentration and buffer (10 mM HEPES, 150 mM NaCl, 10 µM ZiCl2, pH 7,4). The assay plate was briefly vortexed, and air bubbles were removed by spinning at 1000 rpm. The fluorescence anisotropy was measured on a Spectra Max Paradigm multimode plate reader (Molecular Devices). The fluorescence polarization competition […]
preE-let-7. The concentration of Lin28_ ZKD is kept at 40 nM, a value in the range of the dissociation constant of Lin28_ZKD and preE-let-7 determined through fluorescence polarization titration assay, whereas preE-let-7 concentration is kept constant at 10 nM. FP competitive binding assays were performed on 384-well plates (#3575, Corning) with a total well volume of 10 µL.
(§2) Fluorescence polarization readings were transferred into Prism 7.0 (GraphPad). All fluorescence polarization assays were repeated at least three times and the anisotropy values fitted using GraphPad Prism software using 1:1 binding/inhibition model. […]

myc-Lin28A = test: Ubiquitination assay of myc-Lin28A in 22Rv1 cells; type: cell-based; conditions: HA-Ub co-transfected, 500 nM, 48 h, anti-HA western blot after cMyc IP
Description: (§3) Next, we investigated the ability of ORN3P1 and ORN7P1 to mediate ubiquitination of Lin28 in cells, using a previously described protocol. ^[32] Cells from the prostate cancer cell line 22RV1, which express very low levels of Lin28, were co‐transfected with two plasmids expressing pCMV‐myc‐Lin28A and HA‐tagged polyubiquitin (HA‐Ub).
(§4) After 48 h of incubation with ORN3P1 and ORN7P1, the tagged Lin28 (and the control QKI) was immunoprecipitated using an anti‐Myc antibody. The isolated protein was then analyzed by western blotting using the anti‐HA and anti‐c‐Myc antibodies. Consistent with other previously described PROTAC reagents,[ ^32 , ^33 ]
(§5) The protein extracts (12-17 µg) were run on a 4-20% SDS-PAGE and transferred on a nitrocellulose blotting membrane 0.22 µm (GE Healthcare) using the Trans-Blot transfer device (Biorad). Membranes were blocked with 5% milk and incubated with the primary antibody overnight at 4 °C. Membranes were washed with 0.05% PBS-T and reacted with the secondary antibody for 1 h in 5% milk. The proteins were detected using the anti-lin28a antibody (Cell Signaling technology, D9F5), anti-lin28b antibody (Cell Signaling technology, 4196S), anti-rbfox1 (NovusBio, NBP2-13169SS), at 1:1000 and anti-hrnp c antibody […]
(§6) (Abcam, AB133607) at 1:10000 dilutions. […]
(§7) on a ChemiDoc MP imager (Biorad). The intensity of the signal was quantified using the ImageJ-Fiji software. […]

Lin28A [2] = test: Western blot of Lin28A in NT2/D1 cells; type: cell-based, human; conditions: 2 μM, three independent experiments
Source text: Finally, we tested RNA‐PROTACs for their ability to degrade their target in two cell lines: the embryonic NT2/D1 cell line, which expresses high levels of Lin28A, ^[13a] and K562 cells which express Lin28A and Lin28B. […] Finally, we co‐treated K562 cells with ORN3P1 and MG132, a reversible inhibitor of the 26S proteasome. […] In order to explore the versatility of RNA‐PROTACs with non peptide‐based VHL ligands, we conjugated small‐molecule VH032 ^[38] to ORN3 via an amino linker to yield ORN3VH032 (Figure S1). […]

Lin28A [3] = test: Pull-down RNA ELISA, gymnosis, anti-Lin28A; type: cell-based, human; conditions: 3'-biotin conjugates, K562 cells, 2 µM, 24 h; streptavidin plate; vs mock or FUS antibody
Source text: Humans express two paralogs of the protein, LIN28 (Lin28A) and LIN28B (Lin28B), that play key roles in development, metabolism, and pluripotency. ^[34] Lin28 proteins are abundantly expressed during embryonic development, as well as in several tumors and tumor‐derived cell lines. ^[35] […] In order to confirm that RNA‐PROTACs bind to endogenous Lin28 in cells, we performed a pull‐down RNA ELISA assay that we have previously described. ^[36] Thus, we conjugated a biotin group to the 3′ ends of ORN3P1 and ORN7P1 and added these reagents separately on to myelogenous leukemia K562 cells. We incubated lysates from treated cells on streptavidin‐coated plates so as to capture the RNA‐PROTACs present in the cell lysates. We then assayed for the presence of Lin28A in the plates using an anti‐Lin28A antibody and a negative control anti‐FUS antibody. […]
as §5, with “Membranes were blocked with 5% milk and incubated with the primary antibody overnight at 4 °C. Membranes were washed with 0.05% PBS-T and reacted with the secondary antibody for 1 h in 5% milk.” left out
as §7

QKI (pDEST-Myc-QKI) = test: Ubiquitination assay of Myc-QKI (negative control RBP) in 22Rv1 cells; type: cell-based; conditions: pDEST-Myc-QKI and HA-Ub, 500 nM, 48 h
Description: as §3, §4, §5, §6, §7

Lin28_ZKD [4] = biological target: T1, Lin28_ZKD; test: Fluorescence polarization titration, Lin28_ZKD binding to preE-let-7f-1-FAM; conditions: Lin28_ZKD titrated into FAM-labeled preE-let-7, 10 nM; 10 mM HEPES, 150 mM NaCl, pH 7.4; read-out: K D of the Lin28_ZKD/let7FAM interaction
Description: as §1, with “Devices).” for “Devices). The fluorescence polarization competition”
as §2

Compound	competition for Lin28_ZKD relative to parent unconjugated oligonucleotides (Lin28_ZKD [1])	ubiquitination of myc-Lin28A (myc-Lin28A)	reduction of Lin28A (Lin28A [2])	Lin28A pull-down signal (Lin28A [3])	ubiquitination of QKI (QKI (pDEST-Myc-QKI))	Kd (Lin28_ZKD [4])
CC[C@H](C)[C@H](NC(=O)[C@H](Cc1ccc(O)cc1)NC(=O)[C@@H]1C[C@@H](O)CN1C(=O)[C@H](C)NC(=O)[C@H](CC(C)C)NC(=O)CCCCCNC(=O)[C@@H](N)CSC1CC(=O)N(CCOP(=O)(S)OC[C@H]2O[C@@H](n3cnc4c(N)ncnc43)[C@H](OCCOC)[C@@H]2OP(=O)(S)OC[C@H]2O[C@@H](n3cnc4c(=O)[nH]c(N)nc43)[C@H](OCCOC)[C@@H]2OP(=O)(S)OC[C@H]2O[C@@H](n3cnc4c(=O)[nH]c(N)nc43)[C@H](OCCOC)[C@@H]2OP(=O)(S)OC[C@H]2O[C@@H](n3cnc4c(N)ncnc43)[C@H](OCCOC)[C@@H]2OP(=O)(S)OC[C@H]2O[C@@H](n3cnc4c(=O)[nH]c(N)nc43)[C@H](OCCOC)[C@@H]2OP(=O)(S)OC[C@H]2O[C@@H](n3cnc4c(N)ncnc43)[C@H](OCCOC)[C@@H]2OP(=O)(S)OC[C@H]2O[C@@H](n3cc(C)c(=O)[nH]c3=O)[C@H](OCCOC)[C@@H]2OP(=O)(S)OC[C@H]2O[C@@H](n3cnc4c(N)ncnc43)[C@H](OCCOC)[C@@H]2OP(=O)(S)OC[C@H]2O[C@@H](n3cnc4c(N)ncnc43)[C@H](OCCOC)[C@@H]2OP(=O)(S)OC[C@H]2O[C@@H](n3cc(C)c(N)nc3=O)[C@H](OCCOC)[C@@H]2OP(=O)(S)OC[C@H]2O[C@@H](n3cc(C)c(=O)[nH]c3=O)[C@H](OCCOC)[C@@H]2O)C1=O)C(=O)O (stereo partly drawn) [ORN7P1]	competed slightly more strongly	showed a smear on the gel towards higher molecular weight	~50%	strong signal for Lin28A protein	showed no such effects	
Let7FAM: FAM_GGGGUAGUGAUUU UACCCUGUUCAGGAGAU, PO-RNA; fluorescent probe ({FAM}-rGrGrGrGrUrArGrUrGrArUrUrUrUrArCrCrCrUrGrUrUrCrArGrGrArGrArU)						27 nM
